Entries after “also recorded” stand apart in the source; their conditions may differ.
Legend:
[1] = MTT in vitro cytotoxicity assay, MARC145; format: cell-based, African green monkey; conditions: African green monkey, MARC145 cells (kidney cell line, subclone of MA-104), MTT, mean ± S.D.
Description: (§1) The lead molecules A2 and all newly prepared diarylamine derivatives B1-13 and C1-11 were evaluated for their in vitro cytotoxic effects against SGC-7901, A875, HepG2 and MARC145 cell lines by the classical MTT [3-(4,5-dimethylthiazol-2-yl)-2,5-diphenyl tetrazolium bromide] assay ([Alley et al., 1988]; [Ke et al., 2012]; [Shi et al., 2012]; [Yu et al., 2015]; [Ke et al., 2019]; [Xu et al., 2019]; [Huang et al., 2021]) using 5-FU (5-Fluorouracil) as a control.
(§2) The cytotoxicity of target compounds was determined with MTT assay ([Alley et al., 1988]; [Ke et al., 2012]; [Shi et al., 2012]; [Yu et al., 2015]; [Ke et al., 2019]; [Xu et al., 2019]; [Huang et al., 2021]). SGC-7901, A875, HepG2 and MARC145 cell lines were obtained from Hubei Biopesticide Engineering Research Centre. All data of the experiment were analyzed with SPSS software, and all assay were performed in triplicate on three independent experiments, and measurement data were expressed as the mean ± S.D.
(§3) The in vitro cytotoxicity of the synthesized compounds against different cell lines (SGC-7901, A875, HepG2 and MARC145) was measured with MTT assay. All the data of the experiment were analyzed with SPSS software, and the 50% inhibitory concentrations (IC50) of each compound for the different cell lines were determined. A control was run for each test, and all assays were performed in triplicate on three independent experiments, and measurement data were expressed as the mean ± S.D.

[2] = test system: MARC145 (subclone of African green monkey kidney cell line MA-104); test: MTT in vitro cytotoxicity assay, MARC145; format: cell-based; conditions: Chlorocebus sabaeus, MARC145; at 100 µM; read-out: Cell growth inhibition (%) MARC145
Description: as §1, §2, §3

[3] = test system: SGC-7901, A875, HepG2 and MARC145 cell lines; test: MTT in vitro cytotoxicity assay, statements over the whole cell panel; format: cell-based; conditions: for cytotoxic effect / inhibition activity in words: IC50-based judgement, compared with 5-FU; for inhibition activity in preliminary screening, in words: at 100 µM, inhibition rate higher than control 5-FU
Description: as §1, §2, §3

A875 cells = test: LDH release (cellular necrosis); format: cell-based, human; conditions: 24 h after treatment
Description: From the preliminary analysis of apoptosis, the results encourage us to further investigate the type of cell death induced by the potential compounds (C6 and C11). As we know, the release of LDH is a typical characteristic feature of necrotic cell death, and so which was detected.
A875 cells grown in 96-well plates were treated with serial dilutions of each tested compound for 24 h. The culture media were collected, and the concentrations of LDH were determined based on our previous research ([Huang et al., 2021]).
A875 cells grown in 96-well plates were treated with serial dilutions of each tested compound for 24 h. The culture media were collected, and the concentrations of LDH were determined with an LDH assay kit according to the manufacturer’s instructions (Abcam).

[4] = test system: HepG2 (human hepatocellular liver carcinoma cell line); test: MTT in vitro cytotoxicity assay, HepG2; format: cell-based; conditions: for IC50: mean ± S.D.; for inhibition at 100 µM: HepG2, at 100 µM, read-out: Cell growth inhibition (%) HepG2
Description: as §1, §2, §3

[5] = test system: SGC-7901 (human gastric cancer cell line); test: MTT in vitro cytotoxicity assay, SGC-7901; format: cell-based; conditions: for IC50: mean ± S.D.; for inhibition at 100 µM: SGC-7901, at 100 µM, read-out: Cell growth inhibition (%) SGC-7901
Description: as §1, §2, §3

[6] = test system: A875 (human melanoma cell line); test: MTT in vitro cytotoxicity assay, A875; format: cell-based; conditions: for IC50: mean ± S.D.; for inhibition at 100 µM: A875, at 100 µM, read-out: Cell growth inhibition (%) A875
Description: as §1, §2, §3

HL-7702 = test system: HL-7702; set-up: method as in Peng et al., 2017; conditions: ref Peng et al., 2017; cited from earlier work
MDCK = test system: MDCK; set-up: method as in Peng et al., 2017; conditions: ref Peng et al., 2017; cited from earlier work
A549 = test system: A549; set-up: method as in Peng et al., 2017; conditions: ref Peng et al., 2017; cited from earlier work
[7] = test system: lung cancer cell lines (NCI-H460, A549, and NCI-H1975); set-up: method as in Peng et al., 2017; conditions: ref Peng et al., 2017, read-out: IC50 values against the tested lung cancer cell lines; cited from earlier work
NCI-H1975 = test system: NCI-H1975; set-up: method as in Peng et al., 2017; conditions: ref Peng et al., 2017; cited from earlier work
NCI-H460 = test system: NCI-H460; set-up: method as in Peng et al., 2017; conditions: ref Peng et al., 2017; cited from earlier work

SMILES	IC50 ([1]; Table 1) [µM]	IC50 ([1]; Table 3) [µM]	inhibition at 100 µM [2] [%]	dose-response analysis of cell growth inhibition, in words ([3]; SGC-7901, A875, HepG2, MARC145)	IC50 ([4]; HepG2, Table 1, MTT) [µM]	IC50 ([4]; HepG2, Table 3, MTT) [µM]	inhibition at 100 µM [4] [%]	IC50 ([5]; SGC-7901, Table 1, MTT) [µM]	IC50 ([5]; SGC-7901, Table 3, MTT) [µM]	inhibition at 100 µM [5] [%]	IC50 ([6]; A875, Table 1, MTT) [µM]	IC50 ([6]; A875, Table 3, MTT) [µM]	inhibition at 100 µM [6] [%]	IC50 (HL-7702) [µM]	IC50 (MDCK) [µM]	IC50 (A549) [µM]	IC50 (NCI-H1975) [µM]	cytotoxic effect / inhibition activity in words [3]	inhibition activity in preliminary screening, in words [3]	melting point [°C]	also measured
O=c1[nH]cc(F)c(=O)[nH]1 [5-FU, 5-Fluorouracil, reference compound]	153 ± 11	99 ± 16.4	60.3 ± 3.9	significant concentration dependence	88.1 ± 17.2	91.8 ± 16.1	59 ± 3.5	71.1 ± 2.65	87.7 ± 11	56.8 ± 2.2	82.4 ± 23.7	101 ± 7.14	53.2 ± 4.5	–	–	–	–	–	–	–	release of LDH, in words (A875 cells): significantly increased
Cc1cc(Cl)cc(C(N)=O)c1NC(=O)c1ccccc1Nc1cccc(C(F)(F)F)c1 [A1]	> 89	–	–	–	> 89	–	–	52.8 ± 6.59	–	–	56.9 ± 7.54	–	–	> 80	> 80	> 80	> 80	–	–	–	IC50 [7]: > 80 µM; IC50 (NCI-H460): > 80 µM
CNC(=O)c1cc(Cl)cc(C)c1NC(=O)c1ccccc1Nc1cccc(C(F)(F)F)c1 [A2]	8.13 ± 2.49	–	–	–	12.4 ± 0.39	–	–	8.5 ± 2.26	–	–	7.59 ± 1.82	–	–	46.4 ± 3.87	46 ± 7.77	14.7 ± 1.86	23.4 ± 2.21	–	–	–	IC50 ([3]; SGC-7901, A875, HepG2, MARC145, read-out: IC50 values, span over the tested cell lines): 7.59 to 12.4 µM; IC50 (NCI-H460): 14.8 ± 0.49 µM
O=C(Nc1cccc(C(F)(F)F)c1)c1ccccc1Nc1cccc(C(F)(F)F)c1 [C5, N-(3-(Trifluoromethyl)phenyl)-2-((3-(trifluoromethyl)phenyl)amino)benzamide]	–	9.57 ± 2.15	92.3 ± 4.1	significant concentration dependence	–	10.1 ± 0.8	88.9 ± 1.9	–	6.39 ± 1.53	89.6 ± 5.4	–	8.54 ± 2.17	93.7 ± 3.2	–	–	–	–	good cytotoxic effect; also recorded: higher inhibition activities compared to the control 5-FU	good inhibition activity	75 to 76	–
O=C(Nc1ccc(C(F)(F)F)cc1)c1ccccc1Nc1cccc(C(F)(F)F)c1 [C7, N-(4-(Trifluoromethyl)phenyl)-2-((3-(trifluoromethyl)phenyl)amino)benzamide]	–	11.9 ± 1.37	76.1 ± 3.5	significant concentration dependence	–	10.4 ± 2.17	88.5 ± 3.3	–	8.91 ± 2.15	87 ± 2.4	–	13 ± 3.39	92.6 ± 4.9	–	–	–	–	good cytotoxic effect; also recorded: higher inhibition activities compared to the control 5-FU	good inhibition activity	102 to 103	–
O=C(Nc1ccnc(Cl)c1)c1ccccc1Nc1cccc(C(F)(F)F)c1 [C10, N-(2-Chloropyridin-4-yl)-2-((3-(trifluoromethyl)phenyl)amino)benzamide]	–	22.7 ± 5.93	80.3 ± 4.6	–	–	21.9 ± 1.64	87.2 ± 4.1	–	8.31 ± 2.94	86.8 ± 3.2	–	26.3 ± 7.39	90.1 ± 5.4	–	–	–	–	higher inhibition activities compared to the control 5-FU	good inhibition activity	97 to 98	–

— paper PMC9315260, “Diarylamine-Guided Carboxamide Derivatives: Synthesis, Biological Evaluation, and Potential Mechanism of Action” (Frontiers in Chemistry, 2022)
